From the supplement of paper PMC11208160

Experiment: recombinant barcode read abundance after kanamycin selection (control-corrected) (log10(CPM+1)); higher = more efficient recombination; sequences stand for … in AGTGCAGAGAAAATCGGCCAGTTTTCTCTGCCTGCAGTCCGCATGCCGT…AGATTTATGCAGCGGACTGCCTTTCTCCCAAAGTGATAAACCGGACAGTATCATGGACCGGTTTTCCCGGTAATCCGTATTTGCAAGGTTGGTTTCACT; site = the 11-nt target
Outline: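 Reported as log10(CPM+1), each value stands for recombination efficiency. That efficiency is the averaged, control-corrected counts per million of barcodes found at recombinant junctions. Cells from a pooled E. coli library pairing targets with IS621 bridge RNA target-binding loops were plated twice on chloramphenicol/ampicillin LB agar (control) and twice on chloramphenicol/ampicillin/kanamycin with 0.1 mM IPTG.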
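Note: IS621 recombinase and bridge RNA in Escherichia coli cells.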

| Sequence | recombinant barcode read abundance (log10) |
| --- | --- |
| TGTTCTACTTGGGTTCTAACCTGTTGCCG (site TGCTCTACTCA) | 0.052 |
| TGTTCTACTTGGGTTCTAACCTGTTGCCG (site TGTTCTACTCG) | 0.0964 |
| TGTTCTCCTTGGGTTCTAACCTGTTGCCT (site AGTTCTCCTAG) | 0.0134 |
| TGTTCTCCTTGGGTTCTAACCTGTTGCCT (site CGTTCTCCTAG) | 0.0608 |
| TGTTCTCCTTGGGTTCTAACCTGTTGCCT (site GGTTCTCCTAG) | 0.064 |
| TGTTCTCCTTGGGTTCTAACCTGTTGCCT (site TGTTCTCCTAG) | 0 |
| TGTTGACCTTGGGTTCTAACCTGTTGCAT (site TGTAGATCTAT) | 0.0346 |
| TGTTGACCTTGGGTTCTAACCTGTTGCAT (site TGTTGACCTAT) | 0.329 |
| TTACATGCTTGGGTTCTAACCTGTTGCCT (site AAGATCACTCC) | 0.281 |
| TTACATGCTTGGGTTCTAACCTGTTGCCT (site TTACATGCTAG) | 1.27 |
| TTAGAGGCTTGGGTTCTAACCTGTTGCCT (site TTAGAGACTAG) | 0.363 |
| TTAGAGGCTTGGGTTCTAACCTGTTGCCT (site TTAGAGCCTAG) | 0 |
| TTAGAGGCTTGGGTTCTAACCTGTTGCCT (site TTAGAGGCTAG) | 1.13 |
| TTAGAGGCTTGGGTTCTAACCTGTTGCCT (site TTAGAGTCTAG) | 0.0154 |
| TTAGCATCTTGGGTTCTAACCTGTTGCCT (site TTAGCATCTAG) | 0.589 |
| TTAGCATCTTGGGTTCTAACCTGTTGCCT (site TTAGCCTCTAG) | 0.412 |
| TTAGCATCTTGGGTTCTAACCTGTTGCCT (site TTAGCGTCTAG) | 0.161 |
| TTAGCATCTTGGGTTCTAACCTGTTGCCT (site TTAGCTTCTAG) | 0.0531 |
| TTAGGGTCTTGGGTTCTAACCTGTTGCCT (site TTAGGGACTAG) | 0.252 |
| TTAGGGTCTTGGGTTCTAACCTGTTGCCT (site TTAGGGCCTAG) | 1.17 |
| TTAGGGTCTTGGGTTCTAACCTGTTGCCT (site TTAGGGGCTAG) | 0.0984 |
| TTAGGGTCTTGGGTTCTAACCTGTTGCCT (site TTAGGGTCTAG) | 2.15 |

| Sequence | recombinant barcode read abundance (log10) |
| --- | --- |
| TTAGTCGCTTGGGTTCTAACCTGTTGCCT (site TTAGTAGCTAG) | 0.191 |
| TTAGTCGCTTGGGTTCTAACCTGTTGCCT (site TTAGTCGCTAG) | 2.28 |
| TTAGTCGCTTGGGTTCTAACCTGTTGCCT (site TTAGTGGCTAG) | 0.134 |
| TTAGTCGCTTGGGTTCTAACCTGTTGCCT (site TTAGTTGCTAG) | 0.0472 |
| TTAGTTGCTTGGGTTCTAACCTGTTGCCT (site TTAGTAGCTAG) | 0.225 |
| TTAGTTGCTTGGGTTCTAACCTGTTGCCT (site TTAGTCGCTAG) | 0.0596 |
| TTAGTTGCTTGGGTTCTAACCTGTTGCCT (site TTAGTGGCTAG) | 0.0286 |
| TTAGTTGCTTGGGTTCTAACCTGTTGCCT (site TTAGTTGCTAG) | 1.4 |
| TTCAACTCTTGGGTTCTAACCTGTTGCGT (site TTCAACTCTAC) | 1.56 |
| TTCAACTCTTGGGTTCTAACCTGTTGCGT (site TTCAAGTCTAC) | 0.0543 |
| TTCAAGCCTTGGGTTCTAACCTGTTGCGT (site TTCAAGCCTAC) | 1.17 |
| TTCAAGCCTTGGGTTCTAACCTGTTGCGT (site TTCAAGCCTCC) | 0.0397 |
| TTCAGCCCTTGGGTTCTAACCTGTTGCCT (site TACAGCCCTAG) | 0.456 |
| TTCAGCCCTTGGGTTCTAACCTGTTGCCT (site TTCAGCCCTAG) | 0.679 |
| TTCAGTCCTTGGGTTCTAACCTGTTGCAT (site TTAAGTCCTAG) | 0 |
| TTCAGTCCTTGGGTTCTAACCTGTTGCAT (site TTCAGTCCTAT) | 0.509 |
| TTCATGTCTTGGGTTCTAACCTGTTGCCT (site TTCACGTCTAG) | 0.0724 |
| TTCATGTCTTGGGTTCTAACCTGTTGCCT (site TTCATGTCTAG) | 0.811 |
| TTCCGTCCTTGGGTTCTAACCTGTTGCTT (site CGAGTGACTTG) | 0.0499 |
| TTCCGTCCTTGGGTTCTAACCTGTTGCTT (site TTCCGTCCTAA) | 0.0911 |
| TTCTATGCTTGGGTTCTAACCTGTTGCCT (site TCCTGTGCTAG) | 0.24 |
| TTCTATGCTTGGGTTCTAACCTGTTGCCT (site TTCTATGCTAG) | 0.187 |

| Sequence | recombinant barcode read abundance (log10) |
| --- | --- |
| TTCTTCCCTTGGGTTCTAACCTGTTGCCT (site TTCTTCCCTAG) | 0.235 |
| TTCTTCCCTTGGGTTCTAACCTGTTGCCT (site TTGTACCCTAG) | 0.1 |
| TTGAATGCTTGGGTTCTAACCTGTTGCCT (site TTGAATGCTAG) | 1.15 |
| TTGAATGCTTGGGTTCTAACCTGTTGCCT (site TTGACTGCTAG) | 0.0516 |
| TTGAATGCTTGGGTTCTAACCTGTTGCCT (site TTGAGTGCTAG) | 0.0419 |
| TTGAATGCTTGGGTTCTAACCTGTTGCCT (site TTGATTGCTAG) | 0.214 |
| TTGAGGACTTGGGTTCTAACCTGTTGCGT (site TTGAGGACTAC) | 2.22 |
| TTGAGGACTTGGGTTCTAACCTGTTGCGT (site TTGAGGACTTG) | 0.147 |
| TTGATTACTTGGGTTCTAACCTGTTGCCA (site TTGAGTACTCG) | 0.0598 |
| TTGATTACTTGGGTTCTAACCTGTTGCCA (site TTGATTACTTG) | 0.0149 |
| TTGCCGACTTGGGTTCTAACCTGTTGCCA (site TTGACGACTTG) | 0.608 |
| TTGCCGACTTGGGTTCTAACCTGTTGCCA (site TTGCCGACTTG) | 0.503 |
| TTGCCGACTTGGGTTCTAACCTGTTGCCA (site TTGGCGACTTG) | 0.0806 |
| TTGCCGACTTGGGTTCTAACCTGTTGCCA (site TTGTCGACTTG) | 0.116 |
| TTGCCTTCTTGGGTTCTAACCTGTTGCCT (site TAGCCTTCTAG) | 0.106 |
| TTGCCTTCTTGGGTTCTAACCTGTTGCCT (site TCGCCTTCTAG) | 0.0687 |
| TTGCCTTCTTGGGTTCTAACCTGTTGCCT (site TGGCCTTCTAG) | 0.606 |
| TTGCCTTCTTGGGTTCTAACCTGTTGCCT (site TTGCCTTCTAG) | 0.686 |
| TTGGCAGCTTGGGTTCTAACCTGTTGCCT (site TTGGAAGCTAG) | 0.061 |
| TTGGCAGCTTGGGTTCTAACCTGTTGCCT (site TTGGCAGCTAG) | 2.08 |
| TTGGCAGCTTGGGTTCTAACCTGTTGCCT (site TTGGGAGCTAG) | 0.11 |
| TTGGCAGCTTGGGTTCTAACCTGTTGCCT (site TTGGTAGCTAG) | 0.0352 |
